Experiments:
[1] = Determination of logD values (1-octanol / PBS); type: physicochemical; conditions: 1-octanol / phosphate buffered saline, pH 7.4; radiolabeled tracer detected by radioactivity in 1-octanol and phosphate buffered saline
Description: All experiments for the determination of logD values were performed in triplicate. For the determination by means of radioactivity, around 5 × 10^6 cpm in ca. 1 µL of radioactive stock solutions (water/acetonitrile 1:1) were added to 100 µL phosphate buffered saline (PBS, pH 7.4) and 100 µL of 1-octanol. The mixture was vortexed for 1 min, followed by 5 min of centrifugation for phase separation. A sample of each phase (10 or 50 µL) was measured for radioactivity per volume (Packard Cobra II Autogamma, GMI Inc., USA). In case of FAPI-72 and -73, the reference compounds [^19F]-FAPI-72 and -73 were dissolved in PBS at a concentration of 1 mg/mL. 50 µL of these solutions were each mixed with 50 µL 1-octanol and processed by vortexing and centrifugation as described above. 1 µL of each phase was analyzed by HPLC and the individual content of compound was determined by peak integration. The area under the peaks of the individual runs was used to calculate the log D value.
Fig. 1 Overview of the synthesized precursors discussed in this study. The corresponding log D values were determined by detection of the radiolabeled tracer in 1-octanol and phosphate buffered saline (pH 7). For values labeled with an asterix, the log D was calculated from the relative content of the non-radioactive reference standards in the 1-octanol and the water phase by HPLC analysis and peak integration TEXT PRINTED IN THE PICTURE: FAPI-42: LOG D: -1.63±0.06 | FAPI-52: LOG D: -1.90±0.02 | FAPI-72: LOG D: 1.20±0.01* | FAPI-73: LOG D: 1.13±0.05* | FAPI-74: LOG D: -2.42±0.03 | FAPI-75: LOG D: -3.36±0.12 | FAPI-76: LOG D: -2.86±0.07

[2] = biological target: T1, FAP‐transfected HT‐1080‐FAP cells (Homo sapiens, UniProt Q12884); assay: In vitro binding/uptake on FAP-transfected HT-1080-FAP cells; type: cell-based; conditions: HT1080-FAP cells
T1 construct: expressed in transfected cells; host or cells: HT-1080 cells transfected with FAP (HT-1080-FAP)
T1 sequence (Q12884 1-760): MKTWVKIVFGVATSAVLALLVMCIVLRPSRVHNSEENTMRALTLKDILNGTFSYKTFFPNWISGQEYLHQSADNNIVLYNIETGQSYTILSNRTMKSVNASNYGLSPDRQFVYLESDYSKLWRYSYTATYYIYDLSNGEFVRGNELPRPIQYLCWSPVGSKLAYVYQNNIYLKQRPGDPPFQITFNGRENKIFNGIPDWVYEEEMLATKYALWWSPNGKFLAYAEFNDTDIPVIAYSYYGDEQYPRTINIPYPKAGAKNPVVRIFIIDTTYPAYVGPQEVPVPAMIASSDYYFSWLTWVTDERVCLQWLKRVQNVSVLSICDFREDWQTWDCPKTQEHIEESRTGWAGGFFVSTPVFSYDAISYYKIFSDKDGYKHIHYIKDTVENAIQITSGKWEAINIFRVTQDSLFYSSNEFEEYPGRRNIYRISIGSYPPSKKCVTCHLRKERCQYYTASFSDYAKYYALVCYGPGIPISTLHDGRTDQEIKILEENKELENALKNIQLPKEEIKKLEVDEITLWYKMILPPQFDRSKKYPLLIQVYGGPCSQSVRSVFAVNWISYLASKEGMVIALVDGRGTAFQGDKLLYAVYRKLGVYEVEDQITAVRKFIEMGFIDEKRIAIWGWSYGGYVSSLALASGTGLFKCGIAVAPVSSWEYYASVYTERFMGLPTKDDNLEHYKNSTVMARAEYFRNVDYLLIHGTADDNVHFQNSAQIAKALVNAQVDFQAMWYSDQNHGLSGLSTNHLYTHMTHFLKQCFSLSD
Description: (§1) The binding properties of the FAPI derivatives were evaluated using the FAP‐transfected HT‐1080‐FAP and CD26 expressing HEK-CD26 cells. All cells were cultivated in Dulbecco's modified Eagle's medium (DMEM) containing 10% fetal calf serum (FCS) at 37 °C/5% carbon dioxide. Cells were seeded in 6-well plates and cultivated to a final confluence of approximately 80–90% (1.2 to 2.0 × 10^6 cells/well). After washing with FCS free medium, for each well ca. 3 kBq of the radiolabeled compound (10–20 GBq/µmol for [^18F]AlF-labeling) was added to the cells in FCS free medium. On completion of the individual incubation time, cells were washed with PBS and treated with 1.4 mL lysis buffer (0.3 m NaOH, 0.2% SDS) before being transferred to measuring tubes. Competition experiments were performed by co-incubation with the unlabeled precursor for 60 min. Radioactivity was determined in a Wizard Gamma Counter (Perkin Elmer), normalized to 10^6 cells and calculated as percentage of the applied dose (%AD). Each experiment was performed in triplicate.

[3] = biological target: T2, CD26 expressing HEK-CD26 cells (Homo sapiens, UniProt P27487); assay: In vitro binding on HEK-CD26 cells (negative control); type: cell-based
T2 construct: expressed in transfected cells; host or cells: HEK cells transfected with CD26/DPP4 (HEK-CD26)
Description: as §1

HT-1080-FAP xenografts = assay: Small animal PET imaging; type: in vivo, BALB/c nu/nu mice
Description: Eight-week-old BALB/c nu/nu mice (Charles River) were subcutaneously inoculated with 5 × 10^6 HT-1080-FAP cells. The subcutaneous xenografts were grown at the flanks of the mice. Xenografts were grown to a tumor diameter of 10–15 mm. Mice were anesthetized using isoflurane inhalation. 5–10 MBq of the [^18F]AlF-labeled compounds/ the respective tracer (FAPI-42/52/74/75/76; approx. 0.5 nmol; Am approximately 10–20 GBq/µmol) were injected intravenously for PET imaging. In vivo competition (blocking) experiments with ^68 Ga-FAPI-74 (9 MBq; 18.2 GBq/µmol) were performed by adding 30 nmol of unlabeled FAPI-74 to the injection solution. Images were acquired using a small-animal PET scanner (Inveon, Siemens). Within the first 60 min p.i., a dynamic scan was performed in list mode, followed by a static scan from 120–140 min post injection. Images were reconstructed iteratively using the 3D-OSEM + MAP method (Siemens) and were converted to standardized uptake value (SUV). For the dynamic analysis, 28 frames were reconstructed. Quantification was based on ROI analysis and expressed as SUV.
SUPPLEMENTAL TABLE 1: Tumor-SUVmean values of all mentioned ^18F labeled FAPI-derivatives in HT1080-FAP transplanted nude mice at different time points. The time points 8 min, 22 min and 57 min were selected from the applied 28-frame 3D-OSEM+MAP (Siemens) reconstruction method.

[4] = small animal PET, HT-1080-FAP xenograft

T2 sequence (P27487 whole entry): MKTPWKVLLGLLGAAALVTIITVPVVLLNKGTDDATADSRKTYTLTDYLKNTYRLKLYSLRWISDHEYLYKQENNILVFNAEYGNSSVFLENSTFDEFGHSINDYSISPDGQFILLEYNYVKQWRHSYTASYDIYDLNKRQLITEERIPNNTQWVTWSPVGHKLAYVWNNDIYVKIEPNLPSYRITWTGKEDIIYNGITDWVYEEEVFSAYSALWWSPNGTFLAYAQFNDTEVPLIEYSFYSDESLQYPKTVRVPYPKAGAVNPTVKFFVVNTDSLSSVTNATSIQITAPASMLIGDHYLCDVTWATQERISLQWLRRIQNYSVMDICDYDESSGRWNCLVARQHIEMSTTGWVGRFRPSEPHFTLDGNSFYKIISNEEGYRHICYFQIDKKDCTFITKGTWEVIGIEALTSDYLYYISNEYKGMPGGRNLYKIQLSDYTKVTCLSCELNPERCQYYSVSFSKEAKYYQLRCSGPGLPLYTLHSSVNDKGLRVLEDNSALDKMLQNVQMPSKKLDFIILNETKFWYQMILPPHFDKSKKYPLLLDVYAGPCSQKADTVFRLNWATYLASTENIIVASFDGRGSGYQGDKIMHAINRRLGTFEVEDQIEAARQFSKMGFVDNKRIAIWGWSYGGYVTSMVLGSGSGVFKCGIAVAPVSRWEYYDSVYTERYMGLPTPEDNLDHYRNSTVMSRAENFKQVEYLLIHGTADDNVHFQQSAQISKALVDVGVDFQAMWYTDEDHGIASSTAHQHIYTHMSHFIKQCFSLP

logD [1]: -2.42 ± 0.03
uptake 10 min ([2]; 10 min incubation): 27.2 ± 0.88 %AD/10^6 cells
uptake 60 min ([2]; 60 min incubation): 29.7 ± 0.66 %AD/10^6 cells
uptake 120 min ([2]; 120 min incubation): 30.39 ± 2.47 %AD/10^6 cells
uptake CD26 [3]: 0.18 ± 0.04 %AD/10^6 cells
Tumor Uptake (SUVmean) 8 min (HT-1080-FAP xenografts; HT1080-FAP transplanted nude mice, 8 min): 1.58
Tumor Uptake (SUVmean) 22 min (HT-1080-FAP xenografts; HT1080-FAP transplanted nude mice, 22 min): 1.81
Tumor Uptake (SUVmean) 57 min (HT-1080-FAP xenografts; HT1080-FAP transplanted nude mice, 57 min): 1.91
Tumor Uptake (SUVmean) 120 min (HT-1080-FAP xenografts; HT1080-FAP transplanted nude mice, 120 min): 1.3
excretion pathway (HT-1080-FAP xenografts; small animal PET in tumor bearing mice): favorable renal excretion
tumor uptake SUVmean (HT-1080-FAP xenografts; small animal PET screening, discussion): approx. 2.0
tumor-SUV max (HT-1080-FAP xenografts; [4]): 2.3
tumor-SUV mean (HT-1080-FAP xenografts; [4]): 1.9
Structure (SMILES): N#C[C@@H]1CCCN1C(=O)CNC(=O)c1ccnc2ccc(OCCCN3CCN(C(=O)CN4CCN(CC(=O)O)CCN(CC(=O)O)CC4)CC3)cc12 [FAPI-74]
